PMC11279778 (2024)

System: Bcl-2 G-quadruplex (2F8U, 23-mer with 15,16-G-to-T mutations) (DNA, G4) GGGCGCGGGAGGAATTGGGCGGG
Experiment: CD melting at 265 nm
Conditions: 100 mM KCl; 10 mM Tris-HCl pH 7.2; 3 eq ligand, 2 µM DNA

SMILES	ΔTm
CC[n+]1c(/C=C/c2ccc3c(c2)c2ccccc2n3CCCCn2ccnc2)sc2ccccc21	6.3 °C
CC[n+]1c(/C=C/c2ccc3c(c2)c2ccccc2n3CCCCn2cncn2)sc2ccccc21	3.0 °C
CCn1c2ccccc2c2cc(/C=C/c3sc4ccccc4[n+]3CC)ccc21	3.1 °C
